In patent US8034931B2, “Process for producing substituted aminoquinazolinone derivative, intermediate therefor, and pest control agent” (Nihon Nohyaku Co., Ltd., priority 2003, dated 2011):

Columns and labels:
Assay type in all cases: in vivo
[1] = test system: White Peach Scale (Pseudaulacaspis pentagona); assay: Insecticidal effect on white peach scale, sprayed potato tuber (Test Examples 3 and 5); conditions: 100 ppm liquid chemical, potato tuber with first-instar larvae, fourteen days after the treatment
Source text: Insecticidal Effect on White Peach Scale (Pseudaulacaspis pentagona)
A preparation containing each compound of the present invention listed in Tables 2 to 4 or each comparative compound as an active ingredient was dispersed in and diluted with water to obtain a 100 ppm liquid chemical. A potato tuber with first-instar larvae of white peach scale as parasites was sprayed with the liquid chemical with a spray gun. Fourteen days after the treatment, the living insects were counted. In the same manner as in Test Example 2, the corrected mortality was calculated and the insecticidal effect was judged.
Insecticidal Effect on White Peach Scale (Pseudaulacaspis pentagona) at a Low Dosage
The same test as in Test Example 3 was carried out except for changing the concentration of the liquid chemical to 30 ppm.

[2] = test system: Green Peach Aphid (Myzus persicae); assay: Insecticidal effect on green peach aphid, foliar spray on potted Chinese cabbage (Test Example 1); conditions: 500 ppm liquid chemical, sprayed on Chinese cabbage stalks and leaves, six days after the spraying
Source text: Insecticidal Effect on Green Peach Aphid (Myzus persicae)
A Chinese cabbage plant was planted in each of plastic pots with a diameter of 8 cm and a height of 8 cm, and green peach aphids were propagated on the plant, after which the parasites in each pot were counted. A preparation containing each compound of the present invention listed in Tables 2 to 4 or each comparative compound as an active ingredient was dispersed in and diluted with water to obtain a 500 ppm liquid chemical. The stalks and leaves of the potted Chinese cabbage plants were sprayed with the liquid chemical and air-dried, and then the pots were stored in a greenhouse. Six days after the spraying, green peach aphids parasitic on each Chinese cabbage plant were counted and the control efficacy was calculated by the following equation, whereby the insecticidal effect was judged according to the criterion shown below. Control efficacy=100−{(T×Ca)/(Ta×C)}×100 • Ta: number of parasites before spraying in treated group, • T: number of parasites after spraying in treated group, • Ca: number of parasites before spraying in untreated group, • C: number of parasites after spraying in untreated group.

[3] = test system: Greenhouse Whitefly (Trialeuroddes vaporariorum); assay: Insecticidal effect on greenhouse whitefly, sprayed tomato leaf (Test Examples 2 and 4); conditions: for Test Example 2: insecticidal effect (corrected mortality): 100 ppm liquid chemical, sprayed tomato leaf, 20 adult whiteflies, four days after the inoculation
Source text: Insecticidal Effect on Greenhouse Whitefly (Trialeuroddes vaporariorum)
A preparation containing each compound of the present invention listed in Tables 2 to 4 or each comparative compound as an active ingredient was dispersed in and diluted with water to obtain a 100 ppm liquid chemical. A tomato leaf set in a 20-ml vial with its stalk immersed in water was sprayed with the liquid chemical with a spray gun on a turntable. After air-dryness, the treated leaf was placed in a glass cylinder and inoculated with 20 adult greenhouse whiteflies. After the treatment, the glass cylinder was placed in a greenhouse. Four days after the inoculation, the living insects were counted. The corrected mortality was calculated according to the following equation and the insecticidal effect was judged according to the criterion shown below.
[formula] Criterion for Judgment:
Insecticidal Effect on Greenhouse (Trialeuroddes vaporariorum) at a Low Dosage
The same test as in Test Example 2 was carried out except for changing the concentration of the liquid chemical to 3 ppm.

Structure (SMILES)	Test Example 3: insecticidal effect (corrected mortality) [1]	Test Example 1: insecticidal effect (control efficacy) [2]	Test Example 2: insecticidal effect (corrected mortality) [3]	Test Example 4: controlling effect at a low dosage (corrected mortality) ([3]; 3 ppm liquid chemical, otherwise same as Test Example 2)
O=C(c1ccccc1C(F)(F)F)N1C(=O)N(N=Cc2cccnc2)Cc2cc(C(F)(C(F)(F)F)C(F)(F)F)ccc21 [compound 25]	A (Corrected mortality 100%)	A (Control efficacy 100%)	A (Corrected mortality 100%)	–
CC(C)OC(=O)N1C(=O)N(N=Cc2cccnc2)Cc2cc(C(F)(C(F)(F)F)C(F)(F)F)ccc21 [compound 19]	A (Corrected mortality 100%)	A (Control efficacy 100%)	A (Corrected mortality 100%)	–
O=C(c1ccc(C(F)(F)F)cc1)N1C(=O)N(N=Cc2cccnc2)Cc2cc(C(F)(C(F)(F)F)C(F)(F)F)ccc21 [compound 27]	A (Corrected mortality 100%)	A (Control efficacy 100%)	A (Corrected mortality 100%)	–
CC(=O)N1C(=O)N(NCc2cccnc2)Cc2cc(Br)ccc21 [B, 1-acetyl-3-(3-pyridylmethylamino)-3,4-dihydro-6-bromo-2(1H)-quinazolinone, reference compound]	C (Corrected mortality 89-80%)	A (Control efficacy 100%)	C (Corrected mortality 89-80%)	D (Corrected mortality 79-50%)
CCS(=O)(=O)N1C(=O)N(N=Cc2cccnc2)Cc2cc(C(F)(C(F)(F)F)C(F)(F)F)ccc21 [compound 23]	A (Corrected mortality 100%)	A (Control efficacy 100%)	A (Corrected mortality 100%)	–
CC(C)C(=O)N1C(=O)N(N=Cc2cccnc2)Cc2cc(C(F)(C(F)(F)F)C(F)(F)F)ccc21 [compound 11]	A (Corrected mortality 100%)	A (Control efficacy 100%)	A (Corrected mortality 100%)	–
CCCOC(=O)N1C(=O)N(N=Cc2cccnc2)Cc2cc(C(F)(C(F)(F)F)C(F)(F)F)ccc21 [compound 18]	A (Corrected mortality 100%)	A (Control efficacy 100%)	A (Corrected mortality 100%)	–
COC(=O)N1C(=O)N(N=Cc2cccnc2)Cc2cc(C(F)(C(F)(F)F)C(F)(F)F)ccc21 [compound 16]	A (Corrected mortality 100%)	A (Control efficacy 100%)	A (Corrected mortality 100%)	–
COc1ccccc1C(=O)N1C(=O)N(N=Cc2cccnc2)Cc2cc(C(F)(C(F)(F)F)C(F)(F)F)ccc21 [compound 29]	A (Corrected mortality 100%)	A (Control efficacy 100%)	A (Corrected mortality 100%)	–
CCOCN1C(=O)N(N=Cc2cccnc2)Cc2cc(C(F)(C(F)(F)F)C(F)(F)F)ccc21 [compound 5]	A (Corrected mortality 100%)	A (Control efficacy 100%)	A (Corrected mortality 100%)	–
CS(=O)(=O)N1C(=O)N(N=Cc2cccnc2)Cc2cc(C(F)(C(F)(F)F)C(F)(F)F)ccc21 [compound 22]	A (Corrected mortality 100%)	A (Control efficacy 100%)	A (Corrected mortality 100%)	–
CCCC(=O)N1C(=O)N(N=Cc2cccnc2)Cc2cc(C(F)(C(F)(F)F)C(F)(F)F)ccc21 [compound 10]	A (Corrected mortality 100%)	A (Control efficacy 100%)	A (Corrected mortality 100%)	–
